Measured values as given in patent US9856732B2, “Tracers” (RESTRACK AS, priority 2012, dated 2018).

Columns and labels:
[1] = Oil/water partition coefficient from flooding experiment on silica-packed column at residual oil saturation; format: physicochemical; conditions: 80° C., oil 2 and water 2
Procedure: Structural formulas of examples of compounds from four groups of fluorinated benzyl alcohols tested are shown herein, including in FIG. 1. The compounds could be analyzed using gas chromatography with mass spectrometric detection (GC-MS) in produced water after clean-up and pre-concentration of the water samples. Detection limits of 50 ng/l (ppt) could be obtained depending on the level of interferences from the sample matrix. Several compounds from the four groups were selected and tested for thermal stability, flooding properties, and adsorption to rock materials. In addition, two pilot field tests were initiated. Some results from the laboratory tests are shown in Table 1 and in FIG. 2 to FIG. 10. Partition coefficients were measured at 80° C., oil 2 and water 2.
A still further feature of the benzyl alcohol compounds used in the various aspects of the present invention is their highly suitable partition coefficients. For example, compounds of formula i) or preferred compounds as described herein may have partition coefficients between 1.0 and 8.0. The partition coefficients should not be too high because the partitioning tracers then will be retained too much compared to the passive water tracer. Preferable values for the partition coefficients will be between 1.2 and 7, preferably between 1.3 and 5. In all cases referred to herein partition coefficients are measured at 80° C., oil 2 and water 2, unless otherwise stated.
To test the dynamic properties of the tracer candidate an experimental setup containing a residual oil saturated column was used. […] The column was packed with 70 μm silica beads. Dead crude oil was pumped through the column after which artificial formation water was pumped through the system until residual oil saturation was reached. The tracer candidate was then co-injected with tritiated water (HTO) as a pulse into the water flow. The experiments were conducted with different oil types, different water compositions and at several temperatures.

[2] = Biodegradability in seawater (OECD 306)
Procedure: Tracers must be stable in the harsh reservoir environment, thus their results in the seawater biodegradation component of the HOCNF scheme “OECD (306 1999) guideline for testing chemicals, biodegradation in seawater” often show less than 20% biodegradation ensuring that they automatically are placed in the red category.
(§1) The most important environmental properties were tested on several example compounds. These are biodegradability in seawater and toxicity screening for Skeletonema Costatum. The latter gives a good general indication of the total toxicity of a chemical and in combination with the biodegradability gives a strong indication of the total impact of the environment.

Skeletonema Costatum = assay: Toxicity screening for Skeletonema Costatum (ISO 10253; 2006); format: cell-based; conditions: exposure of 72 hr
From the text: In addition to biodegradation in seawater other tests to be conducted are the toxicity test with Acardia Tonsa (ISO14669; 1999), providing a median lethal concentration (LC50) after an exposure of 48 hr, toxicity test with Skeletonema Costatum (ISO 10253; 2006), providing a median effect concentration (EC50/EL50) after an exposure of 72 hr, toxicity test with Scophthalmus Maximus (PARCOM 2006), providing the mortality of fish after 96 hr at EC50 value and bioaccumulation potential (OECD Guidelines for Testing of Chemicals, 117), providing the logarithm of n-octanol/water partition coefficient.
as §1

Row | SMILES | partition coefficient K [1] | Biodegradability BOD28 [2] | Toxicity EL50 (Skeletonema Costatum)
1 | OCc1c(F)ccc(F)c1F [2,3,6-TFBOH, 2,3,6-trifluorobenzyl alcohol] | 1.9 | 2% | –
2 | OCc1c(F)cc(F)cc1F [2,4,6-TFBOH, 2,4,6-trifluorobenzyl alcohol] | 2.4 | 0-3% | –
3 | OCc1c(F)cccc1F [2,6-DFBOH, 2,6-difluorobenzyl alcohol] | 1.5 | 0% | –
4 | OCc1ccccc1F [2-FBOH, 2-fluorobenzyl alcohol] | 1.5 | – | –
5 | OCc1ccc(F)c(F)c1 [3,4-DFBOH, 3,4-difluorobenzyl alcohol] | 2.1 | – | –
6 | OCc1cc(F)cc(F)c1 [3,5-DFBOH, 3,5-difluorobenzyl alcohol] | 2.9 | 2% | –
7 | OCc1ccc(F)cc1 [4-FBOH] | – | 3% | Ca 10 mg/L
